Results taken from patent publication US11555006B2, “Elucidation of novel 13-series resolvins that increase with atorvastatin and clear infections” (The Brigham and Women's Hospital, Inc., priority 2015, dated 2023).

Experiments:
human macrophages [1] = assay: Human macrophage phagocytosis, ROS and efferocytosis; assay type: cell-based; conditions: for In vitro: human macrophage efferocytosis of apoptotic neutrophils: summary table of bioactions; for In vitro: human macrophage and neutrophil intra-phagolysosomal ROS production / In vitro: human macrophage and neutrophil phagocytosis of E. coli: summary table, macrophages and neutrophils
Procedure: Macrophages were prepared from peripheral blood mononuclear cells (PBMC) purchased from Children's Hospital Blood Bank, Boston, and phagocytosis was assessed as in^31. Briefly, macrophages (5×10^4 cells/well) were incubated with RvT1 (1 pM-10 nM), 1:1 mixture RvT2 and RvT3 (1 pM-10 nM), RvT4 (1 pM-10 nM) or vehicle (0.1% EtOH in DPBS) for 15 min at 37° C., then fluorescent labeled apoptotic cells were added and cells incubated 45 min at 37° C. Extracellular fluorescence was quenched using Trypan blue (1:15 dilution) and phagocytosis assessed using an M3 SpectraMax plate reader (Molecular Devices). In select experiments, macrophages (prepared as detailed above, 5×10^4 cells/well) or neutrophils (1×10^5 cells/well), obtained from human healthy volunteers and isolated as in ^31 in accordance with Partners Human Research Committee Protocol (number 1999P001297), were incubated with H2DCFDA (5 μM, 30 min, 37° C.), excess dye was washed off and cells incubated with RvT1 (1 pM-10 nM), 1:1 mixture RvT2 and RvT3 (1 pM-10 nM), RvT4 (1 pM-10 nM) or vehicle (0.1% EtOH in DPBS, 15 min, 37° C.), then incubated with E. coli (1:50 leukocytes to E. coli, 45 min, 37° C.). Intracellular reactive oxygen species were determined by measuring fluorescence using an M3 SpectraMax plate reader. To assess bacterial phagocytosis, macrophages (5×10^4 cells/well) or neutrophils (1×10^5 cells/well) were incubated with RvT1 (1 pM-10 nM), 1:1 mixture RvT2 and RvT3 (1 pM-10 nM), RvT4 (1 pM-10 nM) or vehicle (0.1% EtOH in DPBS, 15 min, 37° C.), then incubated with BacLight Green (Molecular Probes) labeled E. coli (1:50 leukocytes to E. coli, 45 min, 37° C.). Extracellular fluorescence was then quenched using Trypan blue (1:15 dilution), and phagocytosis was assessed using an M3 SpectraMax plate reader.

human macrophages [2] = assay: Human macrophage caspase 1, IL-1β and lactate dehydrogenase; assay type: cell-based; conditions: summary table of bioactions
Procedure: Human macrophages (1.5×10^4 cells/well) were incubated with RvT1 (10 pM-10 nM), 1:1 mixture RvT2 and RvT3 (10 pM-10 nM), RvT4 (10 pM-10 nM) or vehicle (0.1% EtOH in DPBS, 15 min, 37° C.), then E. coli (7.5×10^5 cells/well, in DPBS, 16 h, 37° C.). Caspase 1 levels were assessed in macrophages by flow cytometry after cell fixing and permeabilization, staining with an anti-caspase 1 (Abcam; 4° C., 30 min) and anti-rabbit-Alexa 488 conjugated antibody (Molecular Probes; 4° C., 30 min). IL-1β levels were determined in cell-free supernatants using an anti-human IL-1β ELISA (eBiosciences) following manufacturer's instructions. Lactate dehydrogenase activity was measured in cell-free supernatants assessing the formation of NADH from NAD+ using a Lactate Dehydrogenase Assay kit (Sigma) following manufacturer's instructions.

[3] = test system: E. coli infections in mice; assay: E. coli peritonitis in mice; assay type: in vivo; conditions: for In vivo: circulating platelet-leukocyte aggregates / In vivo: exudate pro-inflammatory eicosanoid levels during infections / In vivo: infection induced hypothermia / In vivo: macrophage efferocytosis of apoptotic neutrophils / In vivo: murine leukocyte phagocytosis of E. coli / In vivo: neutrophil recruitment during infections / In vivo: protective actions of atorvastatin in infections / In vivo: pyroptosis: summary table of bioactions
Procedure: All animal experiments were conducted in accordance with the Harvard Medical Area Standing Committee on Animals (protocol no. 02570). Mice (male FvB, 6-8 weeks old, Charles River, fed lab diet containing essential fatty acids as from supplier) were anesthetized with isoflurane and microbial peritonitis initiated. Briefly, test compounds or vehicle were injected i.p. or i.v. 5 min prior to live E. coli (serotype 06:K2:H1; 1×10^5 or 1×10^7 CFU/mouse). At designated time intervals mice were harvested, blood was collected via cardiac puncture in heparin, and peritoneal exudates were collected in 4 ml of PBS. The cellular composition in the exudates was determined using Turks solution and light microscopy, and by flow cytometry. For flow cytometry, exudate cells were incubated with anti-mouse CD16/CD32 (eBiosciences, 20 min, 4° C., in PBS containing 5% fetal calf serum-staining solution), followed by incubation with FITC-conjugated anti-mouse Ly6G antibody (clone: 1A8, eBiosciences), PE-conjugated anti-mouse F4/80 antibody (clone:BM8, eBiosciences) and PerCP-Cy5.5-conjugated anti-mouse CD11b antibody (clone:M1/70, eBiosciences) for 30 min (4° C., in staining solution). To assess bacterial phagocytosis in peritoneal exudate leukocytes, exudate cells were incubated with PerCP-Cy5.5-conjugated anti-mouse CD11b antibody (30 min, 4° C., in staining solution), then fixed and permeabilized using BD Perm/Wash™ Buffer (BD Biosciences) following manufacturer's instructions and incubated with FITC-conjugated anti-E. coli antibody (GenTex, 30 min, 4° C., in BD Perm/Wash™ Buffer). Efferocytosis in infectious exudates was assessed by incubating exudate leukocytes with PE-conjugated anti-mouse F4/80 antibody (30 min, 4° C., in staining solution), then fixed and permeabilized using BD Perm/Wash™ Buffer (BD Biosciences) and incubated with FITC-conjugated anti-mouse Ly6G antibody (30 min, 4° C., in BD Perm/Wash™ Buffer). Body temperatures were assessed using an Infrared thermometer (Fluke). Bacterial counts in peripheral blood and inflammatory exudates were determined by overnight cultures (37° C.) of serially diluted samples on LB agar plates. Caspase 1 levels were assessed by incubation of exudate cells with PerCP-Cy5.5-conjugated anti-mouse CD11b antibody (30 min, 4° C., in staining solution), then fixed and permeabilized using BD Perm/Wash™ Buffer (BD Biosciences), incubated with anti-caspase 1 antibody (Abcam, 30 min, 4° C., in BD Perm/Wash™ Buffer) followed by anti-rabbit Alexa 488 conjugated antibody (Life Technologies, 30 min, 4° C., in BD Perm/Wash™ Buffer). IL-1β levels were determined in cell-free supernatants using an anti-mouse IL-1β ELISA (Abcam) following manufacturer's instructions. Lactate dehydrogenase activity was measured in cell-free supernatants assessing the formation of NADH from NAD+ using a Lactate Dehydrogenase Assay kit (Sigma) following manufacturer's instructions.
In select experiments resolution indices were calculated as in ^27. Ψmax, maximal PMN numbers in exudates; Tmax, time point when PMN numbers reach maximum; R50, 50% of maximal PMN numbers; T50, time point when PMN numbers reduce to 50% of maximum; Ri (resolution interval), T50-Tmax, time period when 50% PMN are lost from the exudates. To assess the proresolving actions of the test products, these were administered 12 h after E. coli (10^5 CFU) inoculation, and resolution indices were assessed.
For some experiments, mice were administered via i.p. injection RvT1, RvT2, RvT3 and RvT4 (that were isolated as detailed below and combined as a mixture at a ratio of 2:1:1:8 respectively) 2 h after E. coli inoculation. Blood and lungs were harvested 6 h after E. Coli inoculation. Blood was employed to determine peripheral blood eicosanoid levels as detailed below.

nitric oxide synthase = assay: L-NAME and atorvastatin in E. coli inoculated mice, plasma RvT; assay type: in vivo
Procedure: In a separate set of experiments, mice were inoculated with E. coli; after 60 min they were given L-NAME (24 mg/kg) and 5 min later atorvastatin (5 μg) via i.v. injection. Plasma was obtained after 5 h via cardiac puncture and LM levels were investigated by lipid mediator metabololipidomics. For all animal experiments mice were randomized to vehicle or treatment groups without blinding.

[4] = test system: human neutrophil-endothelial cell co-incubations; assay: Lipid mediator levels in human endothelial cell incubations and neutrophil-endothelial cell co-incubations; assay type: cell-based; conditions: atorvastatin 0.03-30 μM
Procedure: Prior to sample extraction, deuterated internal standards (d4-PGE2, d5-LXA4, d4-RvD2, d4-LTB4 and d8-5S-HETE) representing regions of interest in the chromatographic analysis (500 pg each) were added to facilitate quantification. Extracted samples were analyzed by a LC-MS-MS system, Qtrap 6500 (AB Sciex) equipped with a Shimadzu SIL-20AC autoinjector and LC-20AD binary pump (Shimadzu Corp.). An Agilent Eclipse Plus C18 column (100×4.6 mm×1.8 μm) was used with a gradient of methanol/water/acetic acid of 55:45:0.01 (vol:vol:vol) that was ramped to 85:15:0.01 (vol:vol:vol) over 10 min and then to 98:2:0.01 (vol:vol:vol) for the next 8 min. This was subsequently maintained at 98:2:0.01 (vol:vol:vol) for 2 min. The flow rate was maintained at 0.4 ml/min. To monitor and quantify the levels of lipid mediators, a multiple reaction monitoring (MRM) method was developed with signature ion fragments (m/z) for each molecule monitoring the parent ion (Q1) and a characteristic daughter ion (Q3). […] Calibration curves were determined using a mixture of lipid mediators obtained via total organic synthesis, where these lipid mediators were not available (RvT1, RvT2, RvT3, RvT4 and 13-HDPA); known mediators with similar chromatographic properties (RvD2 for RvT1, RvD1 for RvT2 and RvT3; RvD5 for RvT4; 13-HDHA for 13-HDPA) were used. […]

Row | Compound | In vitro: human macrophage efferocytosis of apoptotic neutrophils (human macrophages [1]) | In vitro: human macrophage and neutrophil intra-phagolysosomal ROS production (human macrophages [1]) | In vitro: human macrophage and neutrophil phagocytosis of E. coli (human macrophages [1]) | In vitro: E. coli induced inflammasome components in human macrophages (human macrophages [2]) | In vitro: E. coli induced macrophage pyroptosis (human macrophages [2]) | In vivo: circulating platelet-leukocyte aggregates [3] | In vivo: exudate pro-inflammatory eicosanoid levels during infections [3] | In vivo: infection induced hypothermia [3] | In vivo: macrophage efferocytosis of apoptotic neutrophils [3] | In vivo: murine leukocyte phagocytosis of E. coli [3] | In vivo: neutrophil recruitment during infections [3] | In vivo: protective actions of atorvastatin in infections [3] | In vivo: pyroptosis [3] | atorvastatin-mediated increases in plasma RvT (nitric oxide synthase; L-NAME 24 mg/kg prior to atorvastatin 5 μg/mouse i.v., E. coli 1×10^5 CFU/mouse) | neutrophil recruitment to the peritoneum (nitric oxide synthase; L-NAME prior to atorvastatin during mouse infections) | RvT in neutrophil-endothelial cell co-cultures [4] | PGI2 and 15-deoxy-Δ-12,14-PGJ2 ([3]; treatment 2 h after E. coli, blood 6 h after E. coli) | endothelin-1 and plasminogen activator inhibitor-1 ([3]; treatment 2 h after E. coli, lung mRNA 6 h after E. coli)
1 | 7,8,13-trihydroxy-docosapentaenoic [RvT2] | Stimulates human | Stimulates human | Stimulates human | Reduces E. coli induced | Reduces E. coli induced | Reduces circulating platelet - | Reduces exudate pro- | Protects against infection | Stimulates macrophage | Stimulates murine leukocyte | Limits neutrophil recruitment | Elaborates the protective | Reduces pyroptosis | – | – | – | – | –
2 | COC(=O)[C@@H](N)CCCNC(=N)N[N+](=O)[O-] [L-NAME, L-NG-Nitroarginine Methyl Ester] | – | – | – | – | – | – | – | – | – | – | – | – | – | significantly reversed | increased | – | – | –
3 | CCC=CCC=CC=CC(O)C(O)C=CC=CC(O)CCCCCC(=O)O (centres unmarked) [RvT3, 7,12,13-trihydroxy-docosapentaenoic acid] | Stimulates human | Stimulates human | Stimulates human | Reduces E. coli induced | Reduces E. coli induced | Reduces circulating platelet- | Reduces exudate pro- | Protects against infection | Stimulates macrophage | Stimulates murine leukocyte | Limits neutrophil | Elaborates the protective | Reduces pyroptosis | – | – | – | – | –
4 | CC/C=C\C/C=C\C=C\C(O)C/C=C\C=C\C(O)CCCCCC(=O)O (centres unmarked) [RvT4, 7,13-dihydroxy-docosapentaenoic acid] | Stimulates human | Stimulates human | Stimulates human | Reduces E. coli induced | Reduces E. coli induced | Reduces circulating platelet- | Reduces exudate pro- | Protects against infection | Stimulates macrophage | Stimulates murine leukocyte | Limits neutrophil recruitment | Elaborates the protective | Reduces pyroptosis | – | – | – | – | –
5 | CC(C)c1c(C(=O)Nc2ccccc2)c(-c2ccccc2)c(-c2ccc(F)cc2)n1CC[C@@H](O)C[C@@H](O)CC(=O)O [atorvastatin] | – | – | – | – | – | – | – | – | – | – | – | – | – | – | – | dose-dependent increases | increases | reduced
